How the values were obtained:
Aurora-2 = biological target: T1, Aurora-2 (Homo sapiens, UniProt O14965); experiment: Ki determination for the inhibition of Aurora-2 (coupled enzyme assay); type: biochemical; details: 70 nM Aurora-2, 30° C.
T1 sequence (O14965 1-403): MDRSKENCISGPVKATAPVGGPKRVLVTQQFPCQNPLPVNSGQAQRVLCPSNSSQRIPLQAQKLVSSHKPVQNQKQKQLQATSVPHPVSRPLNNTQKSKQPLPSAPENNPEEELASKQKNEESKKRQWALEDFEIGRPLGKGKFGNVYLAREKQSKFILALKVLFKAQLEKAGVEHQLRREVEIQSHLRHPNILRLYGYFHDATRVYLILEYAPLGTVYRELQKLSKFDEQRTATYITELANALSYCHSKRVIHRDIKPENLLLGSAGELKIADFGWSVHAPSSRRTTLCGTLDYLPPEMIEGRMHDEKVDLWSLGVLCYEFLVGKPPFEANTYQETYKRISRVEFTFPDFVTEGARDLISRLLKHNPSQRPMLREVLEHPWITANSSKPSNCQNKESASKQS
Description: Compounds were screened in the following manner for their ability to inhibit Aurora-2 using a standard coupled enzyme assay (Fox et al (1998) Protein Sci 7, 2249).
To an assay stock buffer solution containing 0.1M HEPES 7.5, 10 mM MgCl2, 1 mM DTT, 25 mM NaCl, 2.5 mM phosphoenolpyruvate, […], 30 mg/ml pyruvate kinase, 10 mg/ml lactate dehydrogenase, […], and 800 μM peptide (LRRASLG, American Peptide, Sunnyvale, Calif.) was added a DMSO solution of a compound of the present invention to a final concentration of 30 μM. The resulting mixture was incubated at 30° C. for 10 min. The reaction was initiated by the addition of 10 μL of Aurora-2 stock solution to give a final concentration of 70 nM in the assay. The rates of reaction were obtained by monitoring absorbance at 340 nm over a 5 minute read time at 30° C. using a BioRad Ultramark plate reader (Hercules, Calif.). The Ki values were determined from the rate data as a function of inhibitor concentration.

GSK-3β (AA 1-420) = biological target: T2, GSK-3β (AA 1-420) (Homo sapiens, UniProt P49841); experiment: Ki determination for the inhibition of GSK-3 (coupled enzyme system); type: biochemical; details: 20 μM ATP, 20 nM GSK-3β, 30° C.
T2 construct: GSK-3β (AA 1-420)
Method in brief: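 GSK-3β (AA 1-420, 20 nM) was run in a pyruvate kinase/LDH-coupled NADH assay in 100 mM HEPES pH 7.5, 10 mM MgCl2, 25 mM NaCl, 1 mM DTT, 1.5% DMSO, with 300 μM phosphopeptide substrate. Compound (0.002–30 μM) was preincubated 10 min at 30° C, then 20 μM ATP was added.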

T2 sequence (P49841 whole entry, the tested form may be a part): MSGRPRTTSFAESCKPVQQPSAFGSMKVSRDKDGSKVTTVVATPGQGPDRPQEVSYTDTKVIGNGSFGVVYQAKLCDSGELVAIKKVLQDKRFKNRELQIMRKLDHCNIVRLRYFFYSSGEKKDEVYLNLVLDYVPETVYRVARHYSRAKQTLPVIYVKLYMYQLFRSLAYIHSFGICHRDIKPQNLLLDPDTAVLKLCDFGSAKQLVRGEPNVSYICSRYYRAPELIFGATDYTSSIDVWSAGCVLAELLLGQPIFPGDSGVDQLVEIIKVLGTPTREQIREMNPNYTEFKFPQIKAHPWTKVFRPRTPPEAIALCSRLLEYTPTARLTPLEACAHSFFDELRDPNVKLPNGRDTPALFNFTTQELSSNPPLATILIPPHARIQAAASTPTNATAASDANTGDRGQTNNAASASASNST

melting point	Ki (Aurora-2)	Ki (GSK-3β (AA 1-420))	Structure (SMILES)
205 to 208 °C	< 100 nM	100 to 1000 nM	CCc1ccccc1Sc1nc(Nc2cc(C)[nH]n2)c2ccccc2n1 [IIa-5, [2-(2-Ethylphenylsulfanyl)-quinazolin-4-yl]-(5-methyl-2H-pyrazol-3-yl)-amine]
273 to 275 °C	< 100 nM	< 100 nM	Cc1cc(Nc2nc(Sc3ccccc3O)nc3ccccc23)n[nH]1 [IIa-11, [2-(2-Hydroxyphenylsulfanyl)-quinazolin-4-yl]-(5-methyl-2H-pyrazol-3-yl)-amine]
> 300 °C	< 100 nM	< 100 nM	O=C(O)c1cccc(Sc2nc(Nc3cc(C4CC4)[nH]n3)c3ccccc3n2)c1 [IIa-26, [2-(3-Carboxyphenylsulfanyl)-quinazolin-4-yl]-(5-cyclopropyl-2H-pyrazol-3-yl)-amine]
245 to 246 °C	< 100 nM	100 to 1000 nM	COC(=O)c1ccc(Sc2nc(Nc3cc(C4CC4)[nH]n3)c3ccccc3n2)cc1 [IIa-35, (5-Cyclopropyl-2H-pyrazol-3-yl)-[2-(4-methoxycarbonylphenylsulfanyl)-quinazolin-4-yl]-amine]
262 to 264 °C	< 100 nM	100 to 1000 nM	CC(=O)Nc1ccc(Sc2nc(Nc3cc(C)[nH]n3)c3cccc(OCCCN4CCOCC4)c3n2)cc1 [IIa-41, [2-(4-Acetamidophenylsulfanyl)-8-(3-morpholin-4-yl-propoxy)-quinazolin-4-yl]-(5-methyl-2H-pyrazol-3-yl)-amine]
257 to 260 °C	< 100 nM	100 to 1000 nM	COC(=O)c1ccc(Sc2nc(Nc3cc(C)[nH]n3)c3ccccc3n2)cc1 [IIa-42, [2-(4-Methoxycarbonylphenylsulfanyl)-quinazolin-4-yl]-(5-methyl-2H-pyrazol-3-yl)-amine]
> 300 °C	< 100 nM	< 100 nM	Cc1cc(Nc2nc(Sc3ccc(Br)cc3)nc3ccccc23)n[nH]1 [IIa-46, [2-(4-Bromophenylsulfanyl)-quinazolin-4-yl]-(5-methyl-2H-pyrazol-3-yl)-amine]
281 to 282 °C	< 100 nM		Cc1cc(Nc2nc(Sc3ccc(NC(=O)CC(C)C)cc3)nc3ccccc23)n[nH]1 [IIa-57, [2-(4-Isobutanecarbonylamino-phenylsulfanyl)-quinazolin-4-yl]-(5-methyl-2H-pyrazol-3-yl)-amine]
264 to 265 °C	< 100 nM		CC(=O)Nc1ccc(Sc2nc(Nc3cc(C)[nH]n3)c3ccc(N)cc3n2)cc1 [IIa-59, [2-(4-Acetamido-phenylsulfanyl)-7-aminoquinazolin-4-yl]-(5-methyl-2H-pyrazol-3-yl)-amine]
266 to 267 °C	< 100 nM		Cc1cc(Nc2nc(Sc3ccc(NC(=O)CN4CCOCC4)cc3)nc3ccccc23)n[nH]1 [IIa-60, (5-Methyl-2H-pyrazol-3-yl)-{2-[4-(2-morpholin-4-yl-acetylamino)-phenylsulfanyl]-quinazolin-4-yl}-amine]
170 to 172 °C	< 100 nM		CC(=O)Nc1ccc(Sc2nc(Nc3cc(C)[nH]n3)c3cccc(OCCCN(C)C)c3n2)cc1 [IIa-73, [2-(4-Acetamidophenylsulfanyl)-8-(3-dimethylamino-propoxy)-quinazolin-4-yl]-(5-methyl-2H-pyrazol-3-yl)-amine]

Second part, the compound before the results:

Structure (SMILES)	melting point	Ki (Aurora-2)	Ki (GSK-3β (AA 1-420))
CC(=O)Nc1ccc(Sc2nc(Nc3cc(C)n[nH]3)cc(-c3ccc(OCCCN(C)C)cc3)n2)cc1 [IIIa-43, {2-(4-Acetamido-phenyl-sulfanyl)-6-[4-(3-dimethylamino-propoxy)-phenyl]-pyrimidin-4-yl}-(5-methyl-2H-pyrazol-3-yl)-amine]	219 to 222 °C	1000 to 10000 nM	1000 to 7000 nM
Cc1cc(Nc2nc(Sc3nccn3C)nc3ccccc23)n[nH]1 [IIa-10, [2-(1-Methylimidazol-2-ylsulfanyl)-quinazolin-4-yl]-(5-methyl-2H-pyrazol-3-yl)-amine]	255 to 256 °C	1000 to 10000 nM	1000 to 7000 nM
Cc1cc(Nc2nc(Sc3ccc(F)cc3F)nc3ccccc23)n[nH]1 [IIa-12, [2-(2,4-Difluorophenylsulfanyl)-quinazolin-4-yl]-(5-methyl-2H-pyrazol-3-yl)-amine]	256 to 258 °C	< 100 nM	< 100 nM
COC(=O)c1cccc(Sc2nc(Nc3cc(C4CC4)[nH]n3)c3ccccc3n2)c1 [IIa-22, (5-Cyclopropyl-2H-pyrazol-3-yl)-[2-(3-methoxycarbonylphenylsulfanyl)-quinazolin-4-yl]-amine]	224 to 225 °C	< 100 nM	< 100 nM
c1ccc2cc(Sc3nc4c(c(Nc5cc(C6CC6)[nH]n5)n3)CCCC4)ccc2c1 [IIa-29, (5-Cyclopropyl-2H-pyrazol-3-yl)-[2-(naphthalen-2-ylsulfanyl)-5,6,7,8-tetrahydroquinazolin-4-yl-]-amine]	244 °C	< 100 nM	100 to 1000 nM
c1ccc2[nH]c(Sc3nc(Nc4cc(C5CC5)[nH]n4)c4ccccc4n3)nc2c1 [IIa-34, [2-(Benzimidazol-2-ylsulfanyl)-quinazolin-4-yl]-(5-cyclopropyl-2H-pyrazol-3-yl)-amine]	201 to 203 °C	< 100 nM	100 to 1000 nM
Cc1cc(Nc2nc(Sc3ccc(C(=O)O)cc3)nc3ccccc23)[nH]n1 [IIa-43, [2-(4-Carboxyphenylsulfanyl)-quinazolin-4-yl]-(5-methyl-2H-pyrazol-3-yl)-amine]	263 to 265 °C	< 100 nM	< 100 nM
CC(=O)Nc1ccc(Sc2nc(Nc3cc(C)[nH]n3)c3ccc(OCCCN(C)C)cc3n2)cc1 [IIa-75, [2-(4-Acetamidophenylsulfanyl)-7-(3-dimethylamino-propoxy)-quinazolin-4-yl]-(5-methyl-2H-pyrazol-3-yl)-amine]	249 to 250 °C	< 100 nM	
Cc1cc(Nc2nc(Oc3ccc4ccccc4c3)nc3ccccc23)n[nH]1 [IIb-2, (5-Methyl-2H-pyrazol-3-yl)-[2-(naphthalen-2-yloxy)-quinazolin-4-yl]-amine]	> 300 °C	< 100 nM	
COc1cccc(Oc2nc(Nc3cc(C)[nH]n3)c3ccccc3n2)c1 [IIb-6, [2-(3-Methoxyphenoxy)-quinazolin-4-yl]-(5-methyl-2H-pyrazol-3-yl)-amine]	277 to 278 °C	< 100 nM	
c1ccc(-c2cccc(Nc3nc(Nc4cc(C5CC5)[nH]n4)c4ccccc4n3)c2)cc1 [IIc-46, [2-(Biphenyl-3-ylamino)-quinazolin-4-yl]-(5-cyclopropyl-2H-pyrazol-3-yl)-amine]	153 °C	< 100 nM	
FC(F)(F)c1ccccc1Nc1nc(Nc2n[nH]c3ccccc23)c2ccccc2n1 [IIc-76, (1H-Indazol-3-yl)-[2-(2-trifluoromethylphenylamino)-quinazolin-4-yl]-amine]		1000 to 10000 nM	100 to 1000 nM
Cc1cc(Nc2nc(COc3ccc(Cl)cc3)nc3c2CCCC3)n[nH]1 [IId-6, [2-(4-Chlorophenoxymethyl)-5,6,7,8-tetrahydro-quinazolin-4-yl]-(5-methyl-2H-pyrazol-3-yl)-amine]		100 to 1000 nM	100 to 1000 nM
